According to patent publication US11919905B2, “Substituted benzo[f]imidazo[1,2-a][1,4]diazepines as anesthetics” (HANGZHOU ADAMERCK PHARMLABS INC., priority 2017, dated 2024):

Experiments:
[1] = test system: mice; assay: Single i.v. administration: autonomous activity of mice; format: in vivo
Experimental: Animals in each group were tested for their autonomous activities, each mouse for 10 minutes. After that, the animals in each group were given a single corresponding drug solution by the tail vein injection (i.v.) according to the corresponding group, 0.1 ml per 10 g body weight, and the autonomous activity of the mice was measured immediately after the administration, and the recording time was 50 min. Data were expressed as mean±standard deviation. Wherein, the dosage of propofol was 20 mg/kg.

[2] = test system: mice; assay: Multiple (9 times) i.v. administrations: duration of disappearance of righting reflex in mice; format: in vivo
Experimental: Animals in each group were given the corresponding drug solution multiple times by the tail vein injection (i.v.) in accordance with the corresponding group, 0.1 ml per mouse each time, for 9 times of consecutive injections (the administration group mice were injected when the righting reflex was recovered). The durations of each disappearance of righting reflex were recorded, and the data was expressed as an average.

[3] = test system: ICR mice; assay: Disappearance of righting reflex in mice induced by drugs (single i.v. bolus); format: in vivo; details: 100 mg/kg single bolus via tail vein, male ICR mice
Experimental: After ICR mice (male, 18-25 g) were fast injected with the same dose (100 mg/kg) of the test drug in a single bolus via the tail vein, the incubation period and the duration of disappearance of the righting reflex in mice were recorded. Wherein, the incubation period refers to the time from the start of administration to the disappearance of the animal's righting reflex, and the duration refers to the time from the disappearance of the righting reflex to the recovery.

[4] = test system: mice; assay: Multiple (10 times) i.v. administrations: autonomous activity of mice; format: in vivo
Experimental: Animals in each group were given the corresponding drug solution multiple times by the tail vein injection (i.v.) in accordance with the corresponding group, 0.1 ml per mouse each time, for ten times of consecutive injections (the administration group mice were injected when the righting reflex was recovered). Then the autonomous activity of mice was measured immediately and the recording time was 50 minutes. Data were expressed as mean±standard deviation.

[5] = test system: ICR mice; assay: Effective dose and lethal dose of intravenous administration in mice; format: in vivo
Experimental: ICR mice (males, 18-25 g) were randomly grouped and were fast given a single bolus of different doses of test drug via the tail vein, and the lowest dose causing the righting reflex to disappear (effective dose) and the dose causing animal death (lethal dose) were recorded, and the treatment windows (lethal dose/effective dose) were calculated.

[6] = background statement; cited from earlier work
[7] = 50 mg/kg i.v., administration 1
[8] = 50 mg/kg i.v., administration 2
[9] = 50 mg/kg i.v., administration 3
[10] = 50 mg/kg i.v., administration 4
[11] = 50 mg/kg i.v., administration 5
[12] = 50 mg/kg i.v., administration 6
[13] = 50 mg/kg i.v., administration 7
[14] = 50 mg/kg i.v., administration 8
[15] = 50 mg/kg i.v., administration 9
[16] = 75 mg/kg i.v., administration 1
[17] = 75 mg/kg i.v., administration 2
[18] = 75 mg/kg i.v., administration 3
[19] = 75 mg/kg i.v., administration 4
[20] = 75 mg/kg i.v., administration 5
[21] = 75 mg/kg i.v., administration 6
[22] = 75 mg/kg i.v., administration 7
[23] = 75 mg/kg i.v., administration 8
[24] = 75 mg/kg i.v., administration 9
[25] = 100 mg/kg i.v., administration 1
[26] = 100 mg/kg i.v., administration 2
[27] = 100 mg/kg i.v., administration 3
[28] = 100 mg/kg i.v., administration 4
[29] = 100 mg/kg i.v., administration 5
[30] = 100 mg/kg i.v., administration 6
[31] = 100 mg/kg i.v., administration 7
[32] = 100 mg/kg i.v., administration 8
[33] = 100 mg/kg i.v., administration 9
[34] = single bolus via tail vein, male ICR mice

COC(=O)CC[C@@H]1N=C(c2ccccn2)c2cc(F)c(C)cc2-n2c(C)cnc21.Cc1ccc(S(=O)(=O)O)cc1 [Compound 1-2]
time after administration until autonomous activity returned to normal level ([1]; single i.v. 50 mg/kg (low-dose group)): 15 min
total distance of autonomous activity compared with blank group ([1]; single i.v. 50 mg/kg-100 mg/kg, within 10 minutes of injection): significantly lower than that of the blank group
time after administration until autonomous activity returned to normal level ([1]; single i.v. 75 mg/kg (medium-dose group)): 35 min
autonomous activity compared with blank group ([1]; single i.v. 100 mg/kg (high-dose group), 50 min test period): consistently lower than that of the blank group during the test period
Percentage of extension of righting reflex disappearance [2, 7]: 100%
righting reflex disappearance time [2, 7]: 2.5 min
Percentage of extension of righting reflex disappearance [2, 8]: 179%
righting reflex disappearance time [2, 8]: 4.4 min
Percentage of extension of righting reflex disappearance [2, 9]: 192%
righting reflex disappearance time [2, 9]: 4.8 min
Percentage of extension of righting reflex disappearance [2, 10]: 227%
righting reflex disappearance time [2, 10]: 5.6 min
Percentage of extension of righting reflex disappearance [2, 11]: 237%
righting reflex disappearance time [2, 11]: 5.9 min
Percentage of extension of righting reflex disappearance [2, 12]: 208%
righting reflex disappearance time [2, 12]: 5.2 min
Percentage of extension of righting reflex disappearance [2, 13]: 268%
righting reflex disappearance time [2, 13]: 6.6 min
Percentage of extension of righting reflex disappearance [2, 14]: 260%
righting reflex disappearance time [2, 14]: 6.5 min
Percentage of extension of righting reflex disappearance [2, 15]: 268%
righting reflex disappearance time [2, 15]: 6.6 min
disappearance time of righting reflex as share of that of the propofol group ([2]; 75 mg/kg dose group, after 6-7 administrations, vs propofol 20 mg/kg): 65-70%
Percentage of extension of righting reflex disappearance [2, 16]: 100%
righting reflex disappearance time [2, 16]: 5.3 min
Percentage of extension of righting reflex disappearance [2, 17]: 128%
righting reflex disappearance time [2, 17]: 6.7 min
Percentage of extension of righting reflex disappearance [2, 18]: 159%
righting reflex disappearance time [2, 18]: 8.4 min
Percentage of extension of righting reflex disappearance [2, 19]: 173%
righting reflex disappearance time [2, 19]: 9.1 min
Percentage of extension of righting reflex disappearance [2, 20]: 194%
righting reflex disappearance time [2, 20]: 10.2 min
Percentage of extension of righting reflex disappearance [2, 21]: 219%
righting reflex disappearance time [2, 21]: 11.5 min
Percentage of extension of righting reflex disappearance [2, 22]: 231%
righting reflex disappearance time [2, 22]: 12.1 min
Percentage of extension of righting reflex disappearance [2, 23]: 211%
righting reflex disappearance time [2, 23]: 11.1 min
Percentage of extension of righting reflex disappearance [2, 24]: 211%
righting reflex disappearance time [2, 24]: 11.1 min
Percentage of extension of righting reflex disappearance [2, 25]: 100%
righting reflex disappearance time [2, 25]: 8.9 min
Percentage of extension of righting reflex disappearance [2, 26]: 121%
righting reflex disappearance time [2, 26]: 10.8 min
Percentage of extension of righting reflex disappearance [2, 27]: 154%
righting reflex disappearance time [2, 27]: 13.8 min
Percentage of extension of righting reflex disappearance [2, 28]: 177%
righting reflex disappearance time [2, 28]: 15.8 min
Percentage of extension of righting reflex disappearance [2, 29]: 181%
righting reflex disappearance time [2, 29]: 16.2 min
Percentage of extension of righting reflex disappearance [2, 30]: 240%
righting reflex disappearance time [2, 30]: 21.5 min
Percentage of extension of righting reflex disappearance [2, 31]: 234%
righting reflex disappearance time [2, 31]: 20.9 min
Percentage of extension of righting reflex disappearance [2, 32]: 238%
righting reflex disappearance time [2, 32]: 21.2 min
Percentage of extension of righting reflex disappearance [2, 33]: 236%
righting reflex disappearance time [2, 33]: 21.1 min
accumulation effect (prolonged rate of righting reflex disappearance time after multiple administrations) ([2]; each dose group vs propofol group): lower than that of propofol
dose dependence of duration of righting reflex disappearance ([2]; i.v., 50-100 mg/kg): dose-dependent
number of consecutive administrations after which duration of righting reflex disappearance reached steady state ([2]; repeated i.v. administration, each dose group): 5-6
Duration (time from disappearance of righting reflex to recovery) [3]: 6.02 min
Incubation period (time from start of administration to disappearance of righting reflex) [3]: 0.52 min
time after administration until autonomous activity returned to normal levels ([4]; 10 consecutive i.v. injections, 50 mg/kg): 15 to 20 min
return of autonomous activity to normal levels ([4]; 10 consecutive i.v. injections, 100 mg/kg, test period 50 minutes): did not return to normal levels during the test period
recovery of the number of autonomous activities and the rest time after multiple administrations ([4]; multiple i.v. administrations, vs propofol): better than that of propofol
minimal effective dose ([5]; Mus musculus, iv, single bolus via tail vein, male ICR mice, read-out: Effective dose (lowest dose causing the righting reflex to disappear)): 40 mg/kg
effective dose reduced, compared to remimazolam (p-toluenesulfonate) ([5]; mice, i.v.): 33.3%
lethal dose increased, compared to remimazolam (p-toluenesulfonate) ([5]; mice, i.v.): 64%
treatment window increased, compared to remimazolam (p-toluenesulfonate) ([5]; mice, i.v.): 2.5 times
Lethal dose (dose causing animal death) [5, 34]: 360 mg/kg
Treatment window (lethal dose/effective dose) [5, 34]: 9

COC(=O)CC[C@@H]1N=C(c2ccccn2)c2cc(Br)ccc2-n2c(C)cnc21.O=S(=O)(O)c1ccccc1 [Remimazolam (besylate), Remimazolam, reference compound]
side effects in preclinical animal experiments [6]: limb jitters, head tilting, opisthotonus
Duration (time from disappearance of righting reflex to recovery) [3]: 10.61 min
Incubation period (time from start of administration to disappearance of righting reflex) [3]: 0.64 min
Effective dose (lowest dose causing the righting reflex to disappear) [5, 34]: 60 mg/kg
Lethal dose (dose causing animal death) [5, 34]: 280 mg/kg
Treatment window (lethal dose/effective dose) [5, 34]: 4.6

COC(=O)CC[C@@H]1N=C(c2ccccn2)c2cc(Br)ccc2-n2c(C)cnc21.Cc1ccc(S(=O)(=O)O)cc1 [Remimazolam (p-toluenesulfonate), Remimazolam, reference compound]
side effects in preclinical animal experiments [6]: limb jitters, head tilting, opisthotonus
Duration (time from disappearance of righting reflex to recovery) [3]: 9.43 min
Incubation period (time from start of administration to disappearance of righting reflex) [3]: 0.73 min
Effective dose (lowest dose causing the righting reflex to disappear) [5, 34]: 60 mg/kg
Lethal dose (dose causing animal death) [5, 34]: 220 mg/kg
Treatment window (lethal dose/effective dose) [5, 34]: 3.6
